Experiments:
[1] = Pharmacokinetic study, single IV bolus in adult male Sprague Dawley rats; type: in vivo; settings: for AUC(0-inf) / C0 / clearance / half-life / Vd: male, Sprague Dawley, rat, plasma, iv
[2] = Stability of CLBQ14 in rat plasma samples; type: in vitro ADME, Sprague Dawley rat
[3] = Stability of CLBQ14 in rat urine samples; type: in vitro ADME, Sprague Dawley rat
[4] = tested on: MtMetAP1a; settings: high-throughput screening; ref [2], [17]; cited from earlier work
[5] = tested on: MtMetAP1c; settings: high-throughput screening; ref [2], [17]; cited from earlier work
[6] = tested on: replicating Mtb; settings: in vitro; ref [2]; cited from earlier work
[7] = tested on: aged non-growing Mtb; settings: in vitro; ref [2]; cited from earlier work
[8] = tested on: human MetAPs; settings: in vitro; ref [2]; cited from earlier work
[9] = 2 mg/kg single IV bolus, male SD rats, n = 4, mean ± SD
[10] = 5 mg/kg single IV bolus, male SD rats, n = 3, mean ± SD
[11] = 10 mg/kg single IV bolus, male SD rats, n = 4, mean ± SD
[12] = Sprague Dawley, rat, Freeze-thaw cycle stability, mean recovery ± SD
[13] = Sprague Dawley, rat, Processed sample or auto-sampler stability, mean recovery ± SD, No IS
[14] = Sprague Dawley, rat, Processed sample or auto-sampler stability, mean recovery ± SD, With IS
[15] = Sprague Dawley, rat, Short-term (bench-top) stability, mean recovery ± SD

Oc1c(Br)cc(Cl)c2cccnc12 [CLBQ14, 7-bromo-5-chloroquinolin-8-ol]
A (coefficient of distributional phase) [1, 9]: 1.39 ± 0.27 mg/L | B (coefficient of terminal phase) [1, 9]: 0.05 ± 0.00 mg/L | A (coefficient of distributional phase) [1, 10]: 3.14 ± 0.42 mg/L | B (coefficient of terminal phase) [1, 10]: 0.09 ± 0.04 mg/L | A (coefficient of distributional phase) [1, 11]: 5.09 ± 1.36 mg/L | B (coefficient of terminal phase) [1, 11]: 0.17 ± 0.07 mg/L | Administered dose excreted unchanged in urine ([1]; after 24 hr, IV bolus, male SD rats): 0.19 ± 0.04% | AUC(0-inf) ([1]; 2 mg/kg): 1.36 ± 0.06 µg·h/mL | C0 ([1]; 2 mg/kg): 1.44 ± 0.27 µg/mL | clearance ([1]; 2 mg/kg, Cl (total clearance), 2 mg/kg single IV bolus, male SD rats, n = 4, mean ± SD): 1.48 L/h/kg | half-life ([1]; 2 mg/kg, T1/2α (half-life of distributional phase), 2 mg/kg single IV bolus, male SD rats, n = 4, mean ± SD): 0.16 ± 0.04 h | half-life ([1]; 2 mg/kg, T1/2β (elimination half-life of the beta elimination phase), 2 mg/kg single IV bolus, male SD rats, n = 4, mean ± SD): 14.8 ± 0.53 h | Vd ([1]; 2 mg/kg, Vss (volume of distribution at steady state), 2 mg/kg single IV bolus, male SD rats, n = 4, mean ± SD): 24.3 ± 1.28 L/kg | AUC(0-inf) ([1]; 5 mg/kg): 1.96 ± 0.4 µg·h/mL | C0 ([1]; 5 mg/kg): 3.24 ± 0.44 µg/mL | clearance ([1]; 5 mg/kg, Cl (total clearance), 5 mg/kg single IV bolus, male SD rats, n = 3, mean ± SD): 2.62 L/h/kg | half-life ([1]; 5 mg/kg, T1/2α (half-life of distributional phase), 5 mg/kg single IV bolus, male SD rats, n = 3, mean ± SD): 0.17 ± 0.03 h | half-life ([1]; 5 mg/kg, T1/2β (elimination half-life of the beta elimination phase), 5 mg/kg single IV bolus, male SD rats, n = 3, mean ± SD): 10 ± 4.6 h | Vd ([1]; 5 mg/kg, Vss (volume of distribution at steady state), 5 mg/kg single IV bolus, male SD rats, n = 3, mean ± SD): 23.2 ± 11.5 L/kg | AUC(0-inf) ([1]; 10 mg/kg): 4.83 ± 0.74 µg·h/mL | C0 ([1]; 10 mg/kg): 5.27 ± 1.43 µg/mL | clearance ([1]; 10 mg/kg, Cl (total clearance), 10 mg/kg single IV bolus, male SD rats, n = 4, mean ± SD): 2.11 L/h/kg | clearance ([1]; 10 mg/kg, Estimated total plasma clearance, across the 3 groups (2, 5 and 10 mg/kg IV bolus), male SD rats): ≤ 2.62 L/h/kg | Vd ([1]; 10 mg/kg, Steady state volume of distribution, across the 3 groups (2, 5 and 10 mg/kg IV bolus), male SD rats): ≤ 25.3 L/kg | half-life ([1]; 10 mg/kg, T1/2α (half-life of distributional phase), 10 mg/kg single IV bolus, male SD rats, n = 4, mean ± SD): 0.25 ± 0.09 h | half-life ([1]; 10 mg/kg, T1/2β (elimination half-life of the beta elimination phase), 10 mg/kg single IV bolus, male SD rats, n = 4, mean ± SD): 13.4 ± 3.59 h | Vd ([1]; 10 mg/kg, Vss (volume of distribution at steady state), 10 mg/kg single IV bolus, male SD rats, n = 4, mean ± SD): 27.3 ± 11.6 L/kg | recovery at 2.5 ng/mL [2, 12]: 104 ± 4.72% | recovery at 400 ng/mL [2, 12]: 95.9 ± 1.89% | recovery at 800 ng/mL [2, 12]: 96.8 ± 1.25% | recovery at 14 days ([2]; Sprague Dawley, rat, Long-term stability, mean recovery ± SD): ≤ 91.3% | recovery ([2]; Sprague Dawley, rat, Mean recovery after three freeze-thaw cycles): > 95.9% | recovery at 2 h [2, 13]: 97.8 ± 1.11% | recovery at 4 h [2, 13]: 97.1 ± 5.42% | recovery at 6 h [2, 13]: 95.5 ± 6.69% | recovery at 2 h [2, 14]: 95.9 ± 1.87% | recovery at 4 h [2, 14]: 94.7 ± 4.2% | recovery at 6 h [2, 14]: 97.3 ± 5.55% | recovery at 2 h [2, 15]: 91.6 ± 4.06% | recovery at 4 h [2, 15]: 95.1 ± 3.24% | recovery at 6 h [2, 15]: 93.7 ± 1.17% | Stability at room temperature ([2]; rat plasma samples, room temperature): stable for up to 6 hours | Stability at room temperature [3]: stable for up to 6 hours | Inhibition of MtMetAP1a [4]: potent and selective inhibitor | Inhibition of MtMetAP1c [5]: potent and selective inhibitor | Potency against replicating Mtb [6]: great potency | Potency against aged non-growing Mtb [7]: increased potency | Selectivity for both MtMetAPs over human MetAPs [8]: great selectivity
